Source: PMC11769294, “(E)-1-(3-(3-Hydroxy-4-Methoxyphenyl)-1-(3,4,5-Trimethoxyphenyl)allyl)-1H-1,2,4-Triazole and Related Compounds: Their Synthesis and Biological Evaluation as Novel Antimitotic Agents Targeting Breast Cancer” (Pharmaceuticals, 2025)
“And” between values parts separate entries of the source, which are not always exact repeats. Equal entries are not always repeated. Where two headings read alike, the source gives them in different places.

Tests used:
Assay type in all cases: cell-based, human
[1] = tested on: SW-620 (Colon Cancer); test: NCI60 screen (SRB); settings: for GI50: five-dose; for growth percent: one dose 10 µM
[2] = tested on: HCT-116 (Colon Cancer); test: NCI60 screen (SRB); settings: 48 h; for growth percent: one dose 10 µM
[3] = tested on: OVCAR-4 (Ovarian Cancer); test: NCI60 screen (SRB); settings: 48 h; for growth percent: one dose 10 µM
[4] = tested on: DU-145 (Prostate Cancer); test: NCI60 screen (SRB); settings: 48 h; for growth percent: one dose 10 µM
[5] = tested on: CCRF-CEM (Leukemia); test: NCI60 screen (SRB); settings: 48 h; for growth percent: one dose 10 µM
[6] = tested on: PC-3 (Prostate Cancer); test: NCI60 screen (SRB); settings: 48 h; for growth percent: one dose 10 µM
[7] = tested on: leukemia panel; test: NCI60 screen (SRB), panel mean; settings: one dose 10 µM, 48 h
[8] = tested on: MDA-MB-468 (Breast Cancer); test: NCI60 screen (SRB); settings: 48 h; for growth percent: one dose 10 µM
[9] = tested on: COLO 205 (Colon Cancer); test: NCI60 screen (SRB); settings: 48 h; for growth percent: one dose 10 µM
[10] = tested on: MCF7 (Breast Cancer); test: NCI60 screen (SRB); settings: 48 h; for growth percent: one dose 10 µM
[11] = tested on: HCC-2998 (Colon Cancer); test: NCI60 screen (SRB); settings: 48 h; for growth percent: one dose 10 µM
[12] = tested on: UACC-62 (Melanoma); test: NCI60 screen (SRB); settings: 48 h; for growth percent: one dose 10 µM
[13] = tested on: K-562 (Leukemia); test: NCI60 screen (SRB); settings: 48 h; for growth percent: one dose 10 µM
[14] = tested on: KM12 (Colon Cancer); test: NCI60 screen (SRB); settings: 48 h; for growth percent: one dose 10 µM
[15] = tested on: NCI 60 cancer cell line panel; test: NCI60 screen (SRB), all cell lines; settings: for mean growth percent: over the 60-cell line panel, one dose 10 µM
[16] = tested on: SF-268 (CNS Cancer); test: NCI60 screen (SRB); settings: 48 h; for growth percent: one dose 10 µM
[17] = tested on: HCT-15 (Colon Cancer); test: NCI60 screen (SRB); settings: 48 h; for growth percent: one dose 10 µM
[18] = tested on: T-47D (Breast Cancer); test: NCI60 screen (SRB); settings: 48 h; for growth percent: one dose 10 µM
[19] = tested on: SR (Leukemia); test: NCI60 screen (SRB); settings: 48 h; for growth percent: one dose 10 µM
[20] = tested on: U251 (CNS Cancer); test: NCI60 screen (SRB); settings: 48 h; for growth percent: one dose 10 µM
[21] = tested on: RPMI-8226 (Leukemia); test: NCI60 screen (SRB); settings: 48 h; for growth percent: one dose 10 µM
[22] = tested on: NCI-H522 (Non-Small Cell Lung Cancer); test: NCI60 screen (SRB); settings: for GI50: five-dose; for growth percent: one dose 10 µM
[23] = tested on: MDA-MB-435 (Melanoma); test: NCI60 screen (SRB); settings: 48 h; for growth percent: one dose 10 µM
[24] = tested on: MDA-MB-231/ATCC (Breast Cancer); test: NCI60 screen (SRB); settings: 48 h
[25] = tested on: SK-MEL-5 (Melanoma); test: NCI60 screen (SRB); settings: 48 h; for growth percent: one dose 10 µM
[26] = tested on: UACC-257 (Melanoma); test: NCI60 screen (SRB); settings: 48 h; for growth percent: one dose 10 µM
[27] = tested on: 786-0 (Renal Cancer); test: NCI60 screen (SRB); settings: 48 h; for growth percent: one dose 10 µM
[28] = tested on: SNB-19 (CNS Cancer); test: NCI60 screen (SRB); settings: 48 h; for growth percent: one dose 10 µM
[29] = tested on: SK-MEL-2 (Melanoma); test: NCI60 screen (SRB); settings: 48 h; for growth percent: one dose 10 µM
[30] = tested on: CAKI-1 (Renal Cancer); test: NCI60 screen (SRB); settings: 48 h; for growth percent: one dose 10 µM
[31] = tested on: HS 578T (Breast Cancer); test: NCI60 screen (SRB); settings: 48 h; for growth percent: HS 578T, one dose 10 µM
[32] = tested on: MOLT-4 (Leukemia); test: NCI60 screen (SRB); settings: one dose 10 µM, 48 h
[33] = tested on: HOP-92 (Non-Small Cell Lung Cancer); test: NCI60 screen (SRB); settings: 48 h; for growth percent: one dose 10 µM
[34] = tested on: breast cancer panel; test: NCI60 screen (SRB), panel mean; settings: BC panel; one dose 10 µM; 48 h
[35] = tested on: NCI/ADR-RES (Ovarian Cancer); test: NCI60 screen (SRB); settings: 48 h; for growth percent: one dose 10 µM
[36] = tested on: HOP-62 (Non-Small Cell Lung Cancer); test: NCI60 screen (SRB); settings: 48 h; for growth percent: one dose 10 µM
[37] = tested on: M14 (Melanoma); test: NCI60 screen (SRB); settings: 48 h; for growth percent: one dose 10 µM
[38] = tested on: MALME-3M (Melanoma); test: NCI60 screen (SRB); settings: 48 h; for growth percent: one dose 10 µM
[39] = tested on: IGROV1 (Ovarian Cancer); test: NCI60 screen (SRB); settings: 48 h; for growth percent: one dose 10 µM
[40] = tested on: SNB-75 (CNS Cancer); test: NCI60 screen (SRB); settings: 48 h; for growth percent: one dose 10 µM
[41] = tested on: SK-OV-3 (Ovarian Cancer); test: NCI60 screen (SRB); settings: 48 h; for growth percent: one dose 10 µM
[42] = tested on: OVCAR-8 (Ovarian Cancer); test: NCI60 screen (SRB); settings: 48 h; for growth percent: one dose 10 µM
[43] = Homo sapiens, five-dose, read-out: IC50 (cell marked * in GI50 column) (converted)
[44] = Homo sapiens, five-dose, read-out: IC50 (cell marked * in GI50 column)

COc1ccc(/C=C/C(c2cc(OC)c(OC)c(OC)c2)n2cncn2)cc1O (stereo not drawn) [Compound 22b, (E)-5-(3-(1H-1,2,4-Triazol-1-yl)-3-(3,4,5-trimethoxyphenyl)prop-1-en-1-yl)-2-methoxyphenol]
GI50 ([1]; Homo sapiens, SW-620, 48 h): 39 nM | GI50 ([1]; 48 h): 39.4 nM | growth percent ([1]; 48 h): 27.62% | GI50 ([2]; Homo sapiens, five-dose): 41 nM | growth percent [2]: 10.52% | GI50 ([3]; Homo sapiens, five-dose): 7050 nM | growth percent [3]: 83.51% | IC50 [4, 43]: 6610 nM | growth percent [4]: 21.00% | GI50 ([5]; Homo sapiens, five-dose): 32 nM | growth percent [5]: 6.31% | GI50 ([6]; Homo sapiens, five-dose): 36 nM | growth percent [6]: 23.47% | mean growth percentage [7]: 4.2% | IC50 [8, 44]: > 100000 nM | growth percent [8]: 8.27% | GI50 ([9]; Homo sapiens, five-dose): 3660 nM | growth percent [9]: 60.64% | GI50 ([10]; Homo sapiens, five-dose): 33 nM | growth percent [10]: 21.2% and 21.22% | GI50 ([11]; Homo sapiens, five-dose): 3000 nM | growth percent [11]: 67.70% | GI50 ([12]; Homo sapiens, five-dose): 47.6 nM | growth percent [12]: 37.50% | GI50 ([13]; Homo sapiens, K562, five-dose): 32 nM | growth percent [13]: 8.05% | GI50 ([14]; Homo sapiens, five-dose): 40.5 nM | growth percent [14]: 26.67% | GI50 ([15]; Homo sapiens, 48 h, five-dose, 48 h, read-out: MG-MID (mean of GI50 values over all cell lines)): 371 nM | GI50 ([15]; Homo sapiens, Figure 8, concentration in molar, read-out: Log 10 GI-50 Mean (converted)): 2140 nM | IC50 ([15]; Homo sapiens, Figure 8, concentration in molar, read-out: Log 10 IC-50 Mean (converted)): 2880 nM | LC50 (50% lethal concentration) ([15]; Homo sapiens, over all 60 cell lines, five-dose): > 100000 nM | GI50 ([15]; five-dose, 48 h, read-out: MG-MID (mean of GI50 values over all cell lines)): 372 nM | TGI (total growth inhibition) ([15]; over all 60 cell lines, five-dose): 57500 nM | mean growth percent ([15]; 48 h): 29.9% | GI50 ([16]; Homo sapiens, five-dose): 58.9 nM | growth percent [16]: 54.09% | GI50 ([17]; Homo sapiens, five-dose): 50.8 nM | growth percent [17]: 16.53% | GI50 ([18]; Homo sapiens, T47D, five-dose): > 100000 nM | growth percent [18]: 34.38% | GI50 ([19]; Homo sapiens, five-dose): 24.8 nM | growth percent [19]: 5.67% | GI50 ([20]; Homo sapiens, U-251, five-dose): 50.6 nM | growth percent [20]: 20.72% | GI50 ([21]; Homo sapiens, five-dose): 37 nM | growth percent [21]: 19.89% | GI50 ([22]; Homo sapiens, NCI-H522, 48 h): 22 nM | GI50 ([22]; 48 h): 22.3 nM | growth percent ([22]; 48 h): 13.04% | GI50 ([23]; Homo sapiens, five-dose): 18.3 nM | growth percent [23]: −32.99% | GI50 ([24]; Homo sapiens, five-dose): 3020 nM | GI50 ([25]; Homo sapiens, five-dose): 45.8 nM | growth percent [25]: 23.87% | GI50 ([26]; Homo sapiens, five-dose): > 100000 nM | growth percent [26]: 55.61% | IC50 [27, 43]: 8910 nM | growth percent [27]: 23.33% | IC50 [28, 43]: 25700 nM | growth percent [28]: 34.19% | GI50 ([29]; Homo sapiens, five-dose): 43.8 nM | growth percent [29]: 18.23% | GI50 ([30]; Homo sapiens, five-dose): 2830 nM | growth percent [30]: 34.50% | growth percent [31]: 28.47% | IC50 ([31]; Homo sapiens, Hs-578T, read-out: IC50 (cell marked * in GI50 column)): > 100000 nM | growth percent [32]: 21.84% | GI50 ([33]; Homo sapiens, five-dose): 67000 nM | growth percent [33]: 47.98% | mean growth percentage [34]: 29.1% | IC50 [35, 44]: 5250 nM | growth percent [35]: 10.82% | IC50 [36, 43]: 30200 nM | growth percent [36]: 22.52% | GI50 ([37]; Homo sapiens, five-dose): 28.7 nM | growth percent [37]: −12.29% | IC50 [38, 44]: > 100000 nM | growth percent [38]: 54.35% | GI50 ([39]; Homo sapiens, IGROV-1, five-dose): 5830 nM | growth percent [39]: 50.48% | IC50 [40, 44]: > 100000 nM | growth percent [40]: 40.99% | IC50 [41, 44]: > 100000 nM | growth percent [41]: 12.67% | IC50 [42, 43]: 3630 nM | growth percent [42]: 15.99%

COc1ccc(C2CC(n3ccnc3)c3cc(OC)c(OC)c(OC)c32)cc1O (stereo not drawn) [Compound 27a, 5-(3-(1H-Imidazol-1-yl)-5,6,7-trimethoxy-2,3-dihydro-1H-inden-1-yl)-2-methoxyphenol]
growth percent ([1]; 48 h): 62.47% | growth percent [2]: 81.13% | growth percent [3]: 100.34% | growth percent [4]: 102.37% | growth percent [5]: 90.92% | growth percent [6]: 60.69% | mean growth percentage [7]: 73.2% | growth percent [8]: 78.64% | growth percent [9]: 106.99% | growth percent [10]: 44.8% and 44.77% | growth percent [11]: 99.22% | growth percent [12]: 65.53% | growth percent [13]: 44.70% | growth percent [14]: 50.59% | mean growth percent ([15]; 48 h): 79.2% | growth percent [16]: 89.96% | growth percent [17]: 59.92% | growth percent [18]: 94.34% | growth percent [19]: 35.42% | growth percent [20]: 80.36% | growth percent [21]: 94.65% | growth percent ([22]; 48 h): 50.13% | growth percent [23]: 5.00% | growth percent ([24]; one dose 10 µM): 81.01% | growth percent [25]: 53.15% | growth percent [26]: 58.46% | growth percent [27]: 91.67% | growth percent [28]: 93.73% | growth percent [29]: 89.63% | growth percent [30]: 74.50% | growth percent [31]: 85.38% | growth percent [32]: 90.04% | growth percent [33]: 59.58% | mean growth percentage [34]: 79.1% | growth percent [35]: 93.87% | growth percent [36]: 80.77% | growth percent [37]: 73.08% | growth percent [38]: 73.18% | growth percent [39]: 82.43% | growth percent [40]: 90.16% | growth percent [41]: 86.31% | growth percent [42]: 89.25%
